Assay results taken from US20040019092A1, “Non-peptide somatostatin receptor ligands” (priority 2001, published 2004).

Assays:
[1] = test system: basal plasma levels of growth hormone, glucagon, insulin and glucose; assay: Endocrine parameters in the Rhesus monkey after subcutaneous administration; format: in vivo
Procedure: Therefore, they were further investigated in the Rhesus monkey and their activity profile was determined. Using subcutaneous administration, they were characterized in this species, by measuring their effects on the basal plasma levels of growth hormone, glucagon, insulin as well changes in glucose levels.
Animals and blood sampling: Rhesus monkeys, fed on the previous day in the morning with fruits only, were placed, slightly anesthetized with ketamin (Ketalar©, Parke-Davis), in primate chairs and brought to the experimental room. A catheter, consisting of an in-dwelling cannula (Vasocan Braunüle, 20G, B. Braun Melsungen AG, D-Melsungen), an extension line made from PP 800/110/260/100 Portex© tubing and a special adapter between cannula and tubing with a minimal void volume, was placed in a saphenic vein. The total volume of this catheter was approximately 0.7 mL. The distal end was placed through a hole in the wall to the adjacent room in order to allow infusion and blood sampling without being noticed by the animal. The animals were monitored with a video system.
During the entire duration of the experiment an infusion of 5 to 10 mL/h of isotonic saline (NaCl 0.9% Braun, B. Braun Medical AG, CH-Emmenbrücke) containing heparin sodium 80 mg/L (Biochemie GMBH, A-Kundl) was maintained, using a roller pump (Vario-Perpex, Guldener, CH-Zürich). At each sampling time 1.5 mL (twice the void volume of the catheter) was taken in one syringe before collecting the actual blood sample of 2 mL in another syringe. The first 1.5 mL were reinfused immediately after the actual sample had been taken. The sample was mixed with 0.1 mL of a mixture containing EDTA (ethlenediaminetetraacetic acid tetrasodium Fluka, CH-Buchs) and aprotinin (Trasylol©, Bayer) resulting in final concentrations of 1.8 mg/mL and 1000 KIE/mL, respectively. The blood samples were kept on ice and spun in a cooled centrifuge. […]
Determinations: The blood levels of the hormones were determined by radioimmunoassay (RIA) using the appropriate antisera, antibodies, labels and standards, glucose by an enzymatic assay: […]

[2] = test system: GHRH stimulated GH secretion; assay: GH secretion, rat in urethan anesthesia, intraduodenal + repeated GHRH stimulation; format: in vivo; conditions: urethan
Description: No further treatment followed subcutaneous or intraduodenal application. […] This value has been determined in a total of four independent experiments. […] However, in further studies compound 47 has also been tested by the enteral route of administration after repeated stimulation of the GH secretion by GHRH. […] With most of these selected compounds additional in vivo experiments in other models (intraduodenal application followed by repeated stimulation of the GH secretion by GHRH, oral application by gavage of unanesthetized, estradiol primed rats) were performed. Table 4 summarizes data obtained for the inhibition of the stimulated GH secretion after subcutaneous, intraduodenal and intravenous application and the inhibitory effects obtained for different time points during intravenous infusion of selected hydantoins. […] [table]

[3] = Plasma protein binding, equilibrium dialysis, human plasma; format: in vitro ADME; conditions: 50-5000 ng/mL, 37° C.
Procedure: In vitro blood distribution and plasma protein binding. For blood distribution studies, fresh, heparinized rat blood (n=3) was spiked with [^14C]-42 to achieve the final concentrations of 5, 50, 500 and 5000 ng/mL. After a 30-minutes incubation at 4° C., 22° C. and 37° C., the samples were centrifuged (1600×g, 10 minutes, at the incubation temperature) to get plasma. The fraction free of 42 in plasma of rat and human was determined by equilibrium dialysis. Phosphate buffer was spiked with [^14C]-42 (50, 500, 5000 ng/mL) and dialyzed versus blank rat and human plasma at 37° C. for 2 hours. The radioactivity was determined in spiked blood samples, in plasma obtained after centrifugation and in both compartments after dialysis.

Row | SMILES | inhibitory effects on hormone release ([1]; up to 1100 μg/kg) | INTRADUODENAL + GHRH ID50 15′ ([2]; ø = no effect at this dose) | INTRADUODENAL + GHRH ID50 30′ [2] | INTRADUODENAL + GHRH ID50 60′ [2] | fraction free in human plasma [3] | dose levels necessary for inhibition of hormone release, times higher than Octreotride [1] | INTRADUODENAL + GHRH ID50 120′ ([2]; 120′, ø = no effect at this dose)
1 | Cc1cccc2c(CC3C(=O)N(CCCCCN)C(=O)N3S(=O)(=O)c3ccc(Oc4ccc(O)c(Cl)c4)c(C#N)c3)c[nH]c12 (stereo not shown) [Compound 44] | no consistent inhibitory effects | 13 mg/kg | 16 mg/kg | 19 mg/kg |  |  | 
2 | N#Cc1cc(S(=O)(=O)N2C(=O)N(CCCCCN)C(=O)C2Cc2c[nH]c3ccccc23)ccc1Oc1ccc(N)cc1 (stereo not shown) [Compound 42] |  |  |  |  | 15-23% |  | 
3 | Cc1cccc2c(CC3C(=O)N(CCCCCN)C(=O)N3S(=O)(=O)c3ccc(Oc4ccc(O)cc4)c(CN)c3)c[nH]c12 (stereo not shown) [Compound 45] |  | 4.663 mg/kg | 6.52 mg/kg | 14.047 mg/kg |  | about 100 times | ˜22000 μg/kg
